Experiment [1] concerns the target FTO (Homo sapiens, UniProt Q9C0B1). The experiment in a line: FTO activity assay (demethylation of m6A methylated RNA substrate). It counts as biochemical. The settings on record: for inhibition at 20 µM: read-out: reduction of FTO activity / FTO activity inhibition. As for the experimental part: An FTO activity assay was performed to determine the inhibitory activity of compounds provided herein towards FTO and compare them with entacapone. This assay measures the ability of FTO to demethylate an m6A methylated RNA substrate. The assay is specific to FTO and is not affected by the function of ALKBH5, which is another RNA demethylase in eukaryotic cells.

In experiment [2] the test system is diffuse intrinsic pontine glioma (DIPG) cells. The experiment in a line: Limiting dilution assay (LDA), DIPG cell self-renewal. It counts as cell-based, human. To be noted: clonal tumor spheres over 2 weeks. As for the experimental part:
A limiting dilution assay (LDA) was used to determine the effect of FTO inhibition with Compound 31 on the self-renewal ability of diffuse intrinsic pontine glioma (DIPG) cells—a type of brain tumor found in an area of the brainstem known as the pons. With this assay DIPG cells are plated on 96-well plates in various numbers (2000 cell per well down to 1 cell per well) and the ability of cells to self-renew and form clonal tumor spheres is measured over a period of 2 weeks.

For experiment [3], the system named is Glioma stem cells. As to the kind of experiment: Glioma stem cell viability, Cell Titer Glo. The settings on record: 48 hours. The format is cell-based, human. Here is the method: Glioma stem cells were incubated with various increasing concentrations of Compound 31 and the percentage of viable cells at 48 hours was quantified using Cell Titer Glo (Promega). […] For the functional assays described below, the IC10 was used to maintain at least 90% viability.

The test system of experiment [4] is Patient derived DIPG cells. The experiment in a line: DIPG cell invasion (Incucyte Cell Imager). The settings on record: 10 μM, 72 hours, vs DMSO, p<0.05. It counts as cell-based, human. Here is the method:
Patient derived DIPG cells were incubated with 10 μM Compound 31 or DMSO (control) for 72 hours and DIPG invasion into the surrounding extracellular matrix was quantified in real time using Incucyte Cell Imager.

In experiment [5] the test system is Patient derived glioma stem cells (GSCs). The experiment in a line: GSC invasion live imaging (Incucyte). It counts as cell-based, human. To be noted: vs DMSO. As for the experimental part:
GSCs in Matrigel 3D matrix, were treated with 40 µM entacapone or DMSO (control) and live imaging was performed in regular time intervals using the Incucyte live cell imaging system. Normalized area of invasion was quantified following normalization of the invading area with the area occupied by the GSC sphere.
Patient derived glioma stem cells (GSCs) were incubated with 70 μM Compound 31 or DMSO (control) for 72 hours and GSC invasion into the surrounding extracellular matrix was quantified in real time using Incucyte Cell Imager. […] GSC invasion is one of the hallmarks of glioblastoma.

The test system of experiment [6] is Notch1. The experiment in a line: Notch1 inhibition assay (Western Blot in GSCs). The format is cell-based, human. The settings on record: 40 µM, 48 hours, two GSC lines. On the technique in general: In western blotting, separated proteins are transferred to a membrane and probed.
Experiment [7] concerns cancer stem cell transcripts in GSCs. As to the kind of experiment: qPCR array for 84 cancer stem cell markers in GSCs. The format is cell-based, human. To be noted: 40 µM, 48 hours. As for the experimental part:
GSCs were treated with 40 µM entacapone for 48 hours to assess whether entacapone would affect expression of stemness-related transcripts. A qPCR array for 84 validated cancer stem cell markers was performed (Qiagen-RT-profiler PCR arrays).

Experiment [8] relates to GSCs from two patients with glioblastoma. The experiment in a line: In vitro extreme limiting dilution analysis (ELDA), GSC self-renewal. The format is cell-based, human. To be noted: 40 μM, 14 days, vs DMSO. As for the experimental part:
To examine whether treatment with Entacapone affects the ability of GSCs to self-renew, serial dilutions of GSCs were cultured from two patients with glioblastoma in the presence of 40 μM entacapone or DMSO (Control) for 14 days.

Experiment [9] concerns Hela cells. To be noted: cited from earlier work.
For experiment [10], the system named is GSC-grafted mice. The settings on record: cited from earlier work.

Molecules are shown by their SMILES. A value given as a limit tells only on which side of the number the result lay.

Sequence of FTO (Q9C0B1 whole entry, species assumed): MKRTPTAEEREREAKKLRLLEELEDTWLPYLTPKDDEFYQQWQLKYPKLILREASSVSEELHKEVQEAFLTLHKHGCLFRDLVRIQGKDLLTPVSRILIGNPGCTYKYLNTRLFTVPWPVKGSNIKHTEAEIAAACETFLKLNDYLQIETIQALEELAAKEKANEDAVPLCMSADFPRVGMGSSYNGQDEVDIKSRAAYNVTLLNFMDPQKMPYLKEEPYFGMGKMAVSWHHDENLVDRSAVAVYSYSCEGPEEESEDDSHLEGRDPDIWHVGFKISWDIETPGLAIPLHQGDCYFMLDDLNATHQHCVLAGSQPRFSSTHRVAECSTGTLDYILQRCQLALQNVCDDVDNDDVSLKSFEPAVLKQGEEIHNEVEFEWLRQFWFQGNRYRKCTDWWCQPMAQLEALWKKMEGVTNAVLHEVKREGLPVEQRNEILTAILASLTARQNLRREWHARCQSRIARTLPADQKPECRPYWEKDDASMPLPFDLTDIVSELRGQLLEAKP

On to `CCN(CCN1CC(OC)C1)C(=O)/C(C#N)=C/c1cc(O)c(O)c([N+](=O)[O-])c1` [Compound 1], for which, in experiment [1], the “FTO inhibitory activity compared to entacapone” value is reported as “significantly higher FTO inhibitory activity compared to entacapone”. In experiment [1] (20 μM), the “% FTO activity” value is recorded as 61% and the inhibition at 20 µM is at least 40%. Besides, the “% FTO activity” value in [1] (40 μM) was determined as 59%.
With `CCN(CCSCCCF)C(=O)/C(C#N)=C/c1cc(O)c(O)c([N+](=O)[O-])c1` [Compound 31], in experiment [2], the “self-renewal ability of DIPG cells” value was “significantly inhibits the self-renewal ability of DIPG cells”. Also, the “IC10, viable cells” value in experiment [3] was found to be 70 µM. Moreover, the IC50 (usually the concentration that gives 50% inhibition) in experiment [3] (Homo sapiens, read-out: IC50, viable cells) was 114 µM. For the same compound, the “DIPG invasion into surrounding extracellular matrix” value in experiment [4] was “significant inhibition of DIPG invasion”. In addition, the “GSC invasion into surrounding extracellular matrix” value in experiment [5] (70 μM, 72 hours, p<0.05) is recorded as “significant inhibition of GSC invasion”. Also, in [1], the “FTO inhibitory activity compared to entacapone” value is listed as “significantly higher FTO inhibitory activity compared to entacapone”. For the same compound, in [1] (20 μM), the “% FTO activity” value is listed as 54% and the inhibition at 20 µM is at least 40%. Also, the “% FTO activity” value in experiment [1] (40 μM) is given as 48%.
Consider `CCN(CC)C(=O)/C(C#N)=C/c1cc(O)c(O)c([N+](=O)[O-])c1` [Entacapone, entacapone, reference compound], for which, in experiment [6], the Notch1 protein expression entry is on record as “induces inhibition of Notch1 protein expression”. Moreover, the “expression of cancer stem cell transcripts” value in experiment [7] is recorded as “significant inhibition of several cancer stem cell transcripts”. The “normalized GSC invasion area” value in experiment [5] (40 µM, Matrigel 3D matrix, 66 hours) is given as “inhibits invasion of GSCs”. In addition, the “tumor-sphere formation frequency of GSCs” value in experiment [8] was “significantly decreased the tumor-sphere formation frequency”. For the same compound, in experiment [1] (20 μM), the “% FTO activity” value was determined as 83% and the inhibition at 20 µM was below 20%. Moreover, in [1] (40 μM), the “% FTO activity” value is 61.5%^ and the “FTO activity inhibition compared with 20 μM compound 31” value is given as “less FTO activity inhibition than 20 UM compound 31”.
As for `C=CC(=O)Nc1ccc([N+](=O)[O-])cc1` [N-(4-nitrophenyl) acrylamide], the half-inhibitory concentration (IC50) in experiment [9] is 1000 µM.
In the case of `CCOC(=O)c1ccccc1Nc1c(Cl)ccc(C)c1Cl` [ethyl ester of meclofenamic acid], in [10], the lifespan entry is on record as “substantially prolong lifespan” and the tumor progression entry is “suppress tumor progression”.

The record behind these values is US20250074894A1, “NITROPHENYL-ACRYLAMIDES AND USES THEREOF” (BROWN UNIVERSITY, priority 2021, published 2025).
